According to patent US9266835B2, “Quinoline derivatives useful as CB-1 inverse agonists” (JANSSEN PHARMACEUTICA NV, priority 2014, dated 2016):
Where a name gives a salt, the structure may show the parent alone.

Key:
[1] = target: Human CB1R (Cannabinoid receptor 1) (Homo sapiens (Human), UniProt P21554); assay: CB-1 in vitro cAMP assay (HTRF), inverse agonism; format: cell-based; conditions: mean where tested more than once
[2] = target: Human CB2R (Cannabinoid receptor 2) (Homo sapiens (Human), UniProt P34972); assay: CB-2 in vitro cAMP assay (HTRF), inverse agonism; format: cell-based; conditions: mean where tested more than once
Sequence of Human CB2R (Cannabinoid receptor 2) (P34972 whole entry): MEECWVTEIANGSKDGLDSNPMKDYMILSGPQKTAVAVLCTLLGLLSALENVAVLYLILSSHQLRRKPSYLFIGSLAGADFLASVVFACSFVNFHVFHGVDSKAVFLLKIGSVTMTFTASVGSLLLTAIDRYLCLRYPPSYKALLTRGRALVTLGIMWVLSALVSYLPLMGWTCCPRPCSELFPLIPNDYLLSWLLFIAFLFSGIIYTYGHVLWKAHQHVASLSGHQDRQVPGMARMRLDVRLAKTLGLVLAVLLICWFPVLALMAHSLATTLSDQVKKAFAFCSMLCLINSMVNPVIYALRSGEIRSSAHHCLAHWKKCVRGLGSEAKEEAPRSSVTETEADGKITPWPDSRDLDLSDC

Sequence of Human CB1R (Cannabinoid receptor 1) (P21554 whole entry): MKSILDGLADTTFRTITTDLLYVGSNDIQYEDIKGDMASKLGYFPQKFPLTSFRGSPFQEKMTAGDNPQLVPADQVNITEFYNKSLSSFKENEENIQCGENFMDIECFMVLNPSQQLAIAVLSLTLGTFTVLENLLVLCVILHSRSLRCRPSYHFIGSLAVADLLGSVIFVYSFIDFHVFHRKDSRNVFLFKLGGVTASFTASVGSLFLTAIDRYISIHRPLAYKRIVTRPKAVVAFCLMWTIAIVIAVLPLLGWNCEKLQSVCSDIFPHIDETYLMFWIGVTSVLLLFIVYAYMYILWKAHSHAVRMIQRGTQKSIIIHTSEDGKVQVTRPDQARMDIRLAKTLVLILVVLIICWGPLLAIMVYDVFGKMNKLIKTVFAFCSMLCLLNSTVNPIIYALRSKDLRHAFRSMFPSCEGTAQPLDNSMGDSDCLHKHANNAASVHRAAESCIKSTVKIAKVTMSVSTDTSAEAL

EC50 [1] | EC50 [2] | Compound
0.191 µM | > 10 µM | Clc1ccc(C(c2ccc(Cl)cc2)c2ccc3nccc(/C=C/c4ccccc4)c3c2)cc1 [Compound 503, (E)-6-(bis(4-chlorophenyl)methyl)-4-styrylquinoline]
1.47 µM | > 10 µM | O=c1cc(/C=C/c2ccc(Cl)cc2)c2cc(C(c3ccccc3)c3ccc(Cl)cc3)ccc2[nH]1 (stereo not drawn) [Compound 34, 4-[(E)-2-(4-Chlorophenyl)ethenyl]-6-[(4-chlorophenyl)(phenyl)methyl]quinolin-2(1H)-one]
0.326 µM | > 10 µM | COc1ccc(C(c2ccc3nccc(/C=C/c4ccccc4)c3c2)c2nccs2)cc1 (stereo not drawn) [Compound 505, (E)-2-((4-methoxyphenyl)(4-styrylquinolin-6-yl)methyl)thiazole]
0.007 µM | > 10 µM | O=c1cc(NCc2ccc(C(F)(F)F)nc2)c2cc(C(c3ccc(Cl)cc3)c3ccc(Cl)cc3)ccc2[nH]1 [Compound #70, 6-(bis(4-chlorophenyl)methyl)-4-(((6-(trifluoromethyl)pyridin-3-yl)methyl)amino)quinolin-2(1H)-one]
> 10 µM | > 10 µM | CC(C)(C)OC(=O)COc1cc(NC2CCN(S(=O)(=O)C(F)(F)F)CC2)c2cc(C(c3ccc(Cl)cc3)c3ccc(Cl)cc3)ccc2n1 [Compound 531, tert-Butyl ({6-[bis(4-chlorophenyl)methyl]-4-({1-[(trifluoromethyl)sulfonyl]-piperidin-4-yl}amino)quinolin-2-yl}oxy)acetate]
0.055 µM | > 10 µM | COCCOc1ccc(Nc2cc(=O)[nH]c3ccc(C(c4ccc(Cl)cc4)c4ccc(Cl)cc4)cc23)cc1 [Compound 94, 6-[Bis(4-chlorophenyl)methyl]-4-{[4-(2-methoxyethoxy)phenyl]-amino}quinolin-2(1H)-one]
0.006 µM | 0.2 µM | COCCNc1cc(C(c2ccc(Cl)cc2)c2ccc(Cl)cc2)cc2c(NC3CCN(S(=O)(=O)C(F)(F)F)CC3)cc(=O)[nH]c12 [Compound 100, 6-(bis(4-chlorophenyl)methyl)-8-((2-methoxyethyl)amino)-4-((1-((trifluoromethyl)sulfonyl)piperidin-4-yl)amino)quinolin-2(1H)-one]
0.113 µM | 0.69 µM | O=C(O)c1ccc(S(=O)(=O)N2CCC(Nc3cc(=O)[nH]c4ccc(C(c5ccc(Cl)cc5)c5ccc(Cl)cc5)cc34)CC2)s1 [Compound 130, 5-[4-([6-[bis(4-chlorophenyl)methyl]-2-hydroxyquinolin-4-yl]amino)piperidine-1-sulfonyl]thiophene-2-carboxylic acid, trifluoroacetic acid salt]
1.12 µM | > 10 µM | CCOC(=O)CCCNc1cc(C(c2ccc(Cl)cc2)c2ccc(Cl)cc2)cc2c(NC3CCN(S(=O)(=O)C(F)(F)F)CC3)cc(=O)[nH]c12 [Compound 104, Ethyl 4-({6-[bis(4-chlorophenyl)methyl]-2-oxo-4-({1-[(trifluoromethyl)sulfonyl]-piperidin-4-yl}amino)-1,2-dihydroquinolin-8-yl}amino)butanoate]
0.322 µM | > 10 µM | O=c1cc(N2CCN(S(=O)(=O)C(F)(F)F)CC2)c2cc(C(c3ccc(Cl)cc3)c3nccs3)ccc2[nH]1 (stereo not drawn) [Compound 35, 6-[(4-Chlorophenyl)(1,3-thiazol-2-yl)methyl]-4-{4-[(trifluoromethyl)sulfonyl]-piperazin-1-yl}quinolin-2(1H)-one]
0.168 µM | > 10 µM | O=c1cc(NCc2ccc(C(F)(F)F)cn2)c2cc(C(c3ccc(Cl)cc3)c3ccc(Cl)cc3)ccc2[nH]1 [Compound 78, 6-[Bis(4-chlorophenyl)methyl]-4-({[5-(trifluoromethyl)pyridin-2-yl]methyl}amino)quinolin-2(1H)-one]
0.025 µM | > 10 µM | COC(=O)c1ccc(C(=O)N2CCC(Nc3cc(=O)[nH]c4ccc(C(c5ccc(Cl)cc5)c5ccc(Cl)cc5)cc34)CC2)cc1 [Compound 113, Methyl 4-{[4-({6-[bis(4-chlorophenyl)methyl]-2-oxo-1,2-dihydroquinolin-4-yl}amino)piperidin-1-yl]carbonyl}benzoate]
1.28 µM | 6.7 µM | O=C(O)COc1cc(NC2CCN(S(=O)(=O)C(F)(F)F)CC2)c2cc(C(c3ccc(Cl)cc3)c3ccc(Cl)cc3)ccc2n1 [Compound 532, ({6-[Bis(4-chlorophenyl)methyl]-4-({1-[(trifluoromethyl)sulfonyl]-piperidin-4-yl}amino)quinolin-2-yl}oxy)acetic acid]
> 10 µM | > 10 µM | CC(=O)N1CCN(c2cc(OS(=O)(=O)C(F)(F)F)nc3ccc(C(c4ccc(Cl)cc4)c4nccs4)cc23)CC1 (stereo not drawn) [Compound 522, 4-(4-Acetylpiperazin-1-yl)-6-[(4-chlorophenyl)(1,3-thiazol-2-yl)methyl]quinolin-2-yl trifluoromethanesulfonate]
0.023 µM | 7.1 µM | O=c1cc(NC2CCN(S(=O)(=O)C(F)(F)F)CC2)c2cc(C(c3ccc(F)cc3)c3ccc(Cl)cc3)ccc2[nH]1 (stereo not drawn) [Compound 52, 6-[(4-Chlorophenyl)(4-fluorophenyl)methyl]-4-({1-[(trifluoromethyl)sulfonyl]-piperidin-4-yl}amino)quinolin-2(1H)-one]
0.063 µM | 3.2 µM | O=c1cc(NC2CCN(S(=O)(=O)c3cccc(F)c3)CC2)c2cc(C(c3ccc(Cl)cc3)c3ccc(Cl)cc3)ccc2[nH]1 [Compound 82, 6-[Bis(4-chlorophenyl)methyl]-4-({1-[(3-fluorophenyl)sulfonyl]-piperidin-4-yl}amino)quinolin-2(1H)-one]
0.242 µM | > 10 µM | O=C(O)CCC(=O)N1CCC(Nc2cc(=O)[nH]c3ccc(C(c4ccc(Cl)cc4)c4ccc(Cl)cc4)cc23)CC1 [Compound 98, 4-(4-((6-(bis(4-chlorophenyl)methyl)-2-oxo-1,2-dihydroquinolin-4-yl)amino)piperidin-1-yl)-4-oxobutanoic acid]
0.159 µM | 0.24 µM | O=C(O)c1ccc(S(=O)(=O)N2CCC(Nc3cc(=O)[nH]c4ccc(C(c5ccc(Cl)cc5)c5ccc(Cl)cc5)cc34)CC2)cc1 [Compound 122, 4-((4-((6-(bis(4-chlorophenyl)methyl)-2-oxo-1,2-dihydroquinolin-4-yl)amino)piperidin-1-yl)sulfonyl)benzoic acid]
0.006 µM | > 10 µM | O=c1cc(NC2CCN(c3ccccc3)CC2)c2cc(C(c3ccc(Cl)cc3)c3ccc(Cl)cc3)ccc2[nH]1 [Compound 60, 6-[bis(4-chlorophenyl)methyl]-4-[(1-phenylpiperidin-4-yl)amino]quinolin-2-ol]
0.219 µM | > 10 µM | NC(=O)CCCOc1ccc(Nc2cc(=O)[nH]c3ccc(C(c4ccc(Cl)cc4)c4ccc(Cl)cc4)cc23)cc1 [Compound 123, 4-[4-({6-[Bis(4-chlorophenyl)methyl]-2-oxo-1,2-dihydroquinolin-4-yl}amino)phenoxy]butanamide]
0.007 µM | > 10 µM | O=c1cc(NC2CCCCC2)c2cc(C(c3ccc(Cl)cc3)c3ccc(Cl)cc3)ccc2[nH]1 [Compound #71, 6-(bis(4-chlorophenyl)methyl)-4-(cyclohexylamino)quinolin-2(1H)-one]
0.027 µM | > 10 µM | COC(=O)Cc1ccc(Nc2cc(=O)[nH]c3ccc(C(c4ccc(Cl)cc4)c4ccc(Cl)cc4)cc23)cc1 [Compound 124, Methyl [4-({6-[bis(4-chlorophenyl)methyl]-2-oxo-1,2-dihydroquinolin-4-yl}amino)phenyl]acetate]
0.604 µM | > 10 µM | O=c1cc(NC2CCNCC2)c2cc(C(c3ccc(Cl)cc3)c3nccs3)ccc2[nH]1 (stereo not drawn) [Compound 39, 6-((4-chlorophenyl)(thiazol-2-yl)methyl)-4-(piperidin-4-ylamino)quinolin-2(1H)-one]
0.121 µM | > 10 µM | O=c1cc(CCc2cccc(Cl)c2)c2cc(C(c3ccc(Cl)cc3)c3nccs3)ccc2[nH]1 (stereo not drawn) [Compound 11, 4-(3-chlorophenethyl)-6-((4-chlorophenyl)(thiazol-2-yl)methyl)quinolin-2(1H)-one]
0.443 µM | > 10 µM | Cc1ccc(/C=C/c2cc(=O)[nH]c3ccc(C(c4ccc(Cl)cc4)c4cccs4)cc23)cc1 (stereo not drawn) [Compound 27, 6-[(4-Chlorophenyl)(thiophen-2-yl)methyl]-4-[(E)-2-(4-methylphenyl)ethenyl]-quinolin-2(1H)-one]
0.333 µM | > 10 µM | O=c1cc(/C=C/c2cccc(C(F)(F)F)c2)c2cc(C(c3ccc(Cl)cc3)c3cccs3)ccc2[nH]1 (stereo not drawn) [Compound 26, 6-[(4-Chlorophenyl)(thiophen-2-yl)methyl]-4-{(E)-2-[3-(trifluoromethyl)phenyl]-ethenyl}quinolin-2(1H)-one]
0.108 µM | 2.38 µM | O=C(O)CCCCOc1cc(C(c2ccc(Cl)cc2)c2ccc(Cl)cc2)cc2c(NC3CCN(S(=O)(=O)C(F)(F)F)CC3)ccnc12 [Compound 537, 5-((6-(bis(4-chlorophenyl)methyl)-4-((1-((trifluoromethyl)sulfonyl)piperidin-4-yl)amino)quinolin-8-yl)oxy)pentanoic acid]
0.228 µM | > 10 µM | COCCn1c(=O)cc(NC2CCN(S(=O)(=O)C(F)(F)F)CC2)c2cc(C(c3ccc(Cl)cc3)c3ccc(Cl)cc3)ccc21 [Compound 110, 6-(bis(4-chlorophenyl)methyl)-1-(2-methoxyethyl)-4-((1-((trifluoromethyl)sulfonyl)piperidin-4-yl)amino)quinolin-2(1H)-one]

Compound | EC50 [1] | EC50 [2]
COc1ccc(C(O)(c2ccc(Cl)cc2)c2ccc3nc(OC(C)(C)C)cc(/C=C/c4ccccc4)c3c2)cc1 (stereo not drawn) [Compound 512, (E)-(2-(tert-butoxy)-4-styrylquinolin-6-yl)(4-chlorophenyl)(4-methoxyphenyl)methanol] | > 10 µM | > 10 µM
CCOC(=O)COc1cc(C(c2ccc(Cl)cc2)c2ccc(Cl)cc2)cc2c(NC3CCN(S(=O)(=O)C(F)(F)F)CC3)cc(=O)[nH]c12 [Compound 544] | 0.126 µM | 3.4 µM
